Assay results from US9963445B2, “Chemical compounds” (SYNGENTA PARTICIPATIONS AG, priority 2013, dated 2018).

What was measured:
Type in all cases: in vivo
Alopecurus myosuroides [1] = experiment: Pre-emergence herbicidal activity, glasshouse pot test; details: pre-emergence spray, rate 1000 g/ha, evaluated after 13 days, scale 0-5
Method in brief: (§1)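 Test species were sown in pots and, after one day under controlled glasshouse conditions, treated with an aqueous spray of the active ingredient in acetone/water containing 0.5% Tween 20. Evaluation followed 13 days later, scoring plant damage from 0 (none) to 5 (total).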

Amaranthus retroflexus [2] = experiment: as above; details: pre-emergence spray, rate 1000 g/ha, evaluated after 13 days, scale 0-5
Method in brief: as §1

Echinochloa crus-galli [3] = experiment: as above; details: pre-emergence spray, rate 1000 g/ha, evaluated after 13 days, scale 0-5
Method in brief: as §1

Setaria faberi [4] = experiment: as above; details: pre-emergence spray, rate 1000 g/ha, evaluated after 13 days, scale 0-5
Method in brief: as §1

Solanum nigrum [5] = experiment: as above; details: pre-emergence spray, rate 1000 g/ha, evaluated after 13 days, scale 0-5
Method in brief: as §1

zea mays [6] = experiment: as above; details: pre-emergence spray, rate 1000 g/ha, evaluated after 13 days, scale 0-5
Method in brief: as §1

Alopecurus myosuroides [7] = experiment: Post-emergence herbicidal activity, glasshouse pot test; set-up: key: 0 = no damage to plant, 5 = total damage to plant; details: Application post-emergence, rate 1000 g/ha, evaluated after 13 days
Method in brief: (§2)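 Seeds sown in standard soil in pots, grown 8 days in glasshouse (24/16 °C day/night, 14 h light, 65% humidity), then sprayed with aqueous solution from active ingredient formulated in acetone/water (50:50) with 0.5% Tween 20. Plants regrown under same conditions, watered twice daily; damage scored after 13 days (0 none–5 total).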

Amaranthus retroflexus [8] = experiment: as above; set-up: key: 0 = no damage to plant, 5 = total damage to plant; details: Application post-emergence, rate 1000 g/ha, evaluated after 13 days
Method in brief: as §2

Echinochloa crus-galli [9] = experiment: as above; set-up: key: 0 = no damage to plant, 5 = total damage to plant; details: Application post-emergence, rate 1000 g/ha, evaluated after 13 days
Method in brief: as §2

Setaria faberi [10] = experiment: as above; set-up: key: 0 = no damage to plant, 5 = total damage to plant; details: Application post-emergence, rate 1000 g/ha, evaluated after 13 days
Method in brief: as §2

zea mays [11] = experiment: as above; set-up: key: 0 = no damage to plant, 5 = total damage to plant; details: Application post-emergence, rate 1000 g/ha, evaluated after 13 days
Method in brief: as §2

Solanum nigrum [12] = experiment: as above; details: Application post-emergence, rate 1000 g/ha, evaluated after 13 days
Description: Seeds of a variety of test species were sown in standard soil in pots. After 8 days cultivation (post-emergence) under controlled conditions in a glasshouse (at 24/16° C., day/night; 14 hours light; 65% humidity), the plants were sprayed with an aqueous spray solution derived from the formulation of the technical active ingredient in acetone/water (50:50) solution containing 0.5% Tween 20 (polyoxyethelyene sorbitan monolaurate, CAS RN 9005-64-5). The test plants were then grown in a glasshouse under controlled conditions (at 24/16° C., day/night; 14 hours light; 65% humidity) and watered twice daily. After 13 days, the test was evaluated (5=total damage to plant; 0=no damage to plant).
ABUTH=Abutilon theophrasti; SOLNI=Solanum nigrum; AMARE=Amaranthus retroflexus; SETFA=Setaria faberi; ALOMY=Alopecurus myosuroides; ECHCG=Echinochloa crus-galli, ZEAMX=zea mays.

Row | SMILES | ALOMY damage score, application pre-emergence (Alopecurus myosuroides [1]) | AMARE damage score, application pre-emergence (Amaranthus retroflexus [2]) | ECHCG damage score, application pre-emergence (Echinochloa crus-galli [3]) | SETFA damage score, application pre-emergence (Setaria faberi [4]) | SOLNI damage score, application pre-emergence (Solanum nigrum [5]) | ZEAMX damage score, application pre-emergence (zea mays [6]) | ALOMY herbicidal damage score (Alopecurus myosuroides [7]) | AMARE herbicidal damage score (Amaranthus retroflexus [8]) | ECHCG herbicidal damage score (Echinochloa crus-galli [9]) | SETFA herbicidal damage score (Setaria faberi [10]) | ZEAMX herbicidal damage score (zea mays [11]) | SOLNI herbicidal damage score (Solanum nigrum [12])
1 | CC1=C(Cl)C(=O)N(c2ccc(C(F)(F)F)cn2)C1O (stereo not drawn) [AF70] | 3 | 5 | 3 | 5 | 5 | 0 | 5 | 5 | 5 | 5 | 2 | 5
2 | CC1=C(Br)C(=O)N(c2ccc(C(F)(F)F)cn2)C1O (stereo not drawn) [AG2] | 3 | 5 | 1 | 4 | 4 | 0 | 4 | 5 | 5 | 5 | 2 | 5
